This note sets out measurements from publication PMC7000685, “Loss of GFAT-1 feedback regulation activates the hexosamine pathway that modulates protein homeostasis” (Nature Communications, 2020).

Assay [1] concerns the target T1, human GFAT-1 (Homo sapiens, UniProt Q06210).
T1 construct: gene GFPT1; full length isoform 2, internal His6-tag inserted between Gly299 and Asp300 (kept), initial Met removed, Sf21 baculovirus (MultiBac), Ni-NTA and SEC; phosphorylated S243 found; dimer in crystal
Description: X-ray crystal structure (crystallized with Frc6P). In kind it is binding. To be noted: isomerase site; linear Glc6P modelled, Frc6P not excluded at this resolution.

The target in assay [2] is T1, human GFAT-1. In words: GDH-coupled glutaminase (amidohydrolysis) assay, […] nm. It counts as biochemical. The note with it: 10 mM L-Gln, 6 mM Frc6P, 1 mM APAD, 1 mM EDTA, 50 mM KCl, 100 mM potassium phosphate pH 7.5, 37 °C; feedback inhibitor bound at isomerase domain (allosteric).
The target in assay [3] is T1, human GFAT-1. In words: X-ray crystal structure (soaking). In kind it is binding. The note with it: 5 mM soak, 2 h; UDP-GlcNAc site of isomerase domain; inhibition curve in the GDH-coupled assay only in Figure 4g.
Assay [4] deals with T1, human GFAT-1. In words: X-ray crystal structure (co-crystallization). It counts as binding.

T1 sequence (Q06210 2-681 isoform Q06210-2): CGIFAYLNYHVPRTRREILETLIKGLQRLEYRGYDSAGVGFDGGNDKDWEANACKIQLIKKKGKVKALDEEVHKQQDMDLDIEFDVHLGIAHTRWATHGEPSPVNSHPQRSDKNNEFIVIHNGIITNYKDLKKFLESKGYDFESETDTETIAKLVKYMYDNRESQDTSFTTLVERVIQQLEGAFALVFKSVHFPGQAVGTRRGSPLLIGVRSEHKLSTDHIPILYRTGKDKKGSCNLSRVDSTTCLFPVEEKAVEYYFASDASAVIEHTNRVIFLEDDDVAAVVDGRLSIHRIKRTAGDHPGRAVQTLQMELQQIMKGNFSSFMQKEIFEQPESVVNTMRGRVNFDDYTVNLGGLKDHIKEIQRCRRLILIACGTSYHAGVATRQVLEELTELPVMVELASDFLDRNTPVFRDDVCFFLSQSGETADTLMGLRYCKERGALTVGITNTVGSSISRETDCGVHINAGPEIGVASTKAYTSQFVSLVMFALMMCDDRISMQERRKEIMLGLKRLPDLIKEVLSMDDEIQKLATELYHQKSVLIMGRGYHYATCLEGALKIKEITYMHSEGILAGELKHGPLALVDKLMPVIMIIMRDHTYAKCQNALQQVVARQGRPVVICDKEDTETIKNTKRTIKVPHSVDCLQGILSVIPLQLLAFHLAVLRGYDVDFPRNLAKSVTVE

Take `O=P(O)(O)OC[C@H]1OC(O)[C@H](O)[C@@H](O)[C@@H]1O` (some centres unmarked) [Glc6P]: the “X-ray crystal structure (crystallized with Frc6P)” value at human GFAT-1 [1] is “we decided to model the product Glc6P in our crystal structures”.

Consider `CC(=O)N[C@H]1[C@@H](OP(=O)(O)OP(=O)(O)OC[C@H]2O[C@@H](n3ccc(=O)[nH]c3=O)[C@H](O)[C@@H]2O)O[C@H](CO)[C@@H](O)[C@@H]1O` [UDP-GlcNAc], for which, at human GFAT-1 [2], the IC50 is 43.3 (−2.3/+2.5) µM.

On to `CC(=O)N[C@H]1[C@@H](OP(=O)(O)OP(=O)(O)OC[C@H]2O[C@@H](n3ccc(=O)[nH]c3=O)[C@H](O)[C@@H]2O)O[C@H](CO)[C@H](O)[C@@H]1O` [UDP-GalNAc], for which, at human GFAT-1 [3], the “X-ray crystal structure (soaking)” value is recorded as “UDP-GalNAc was detected in the UDP-GlcNAc binding site after crystal soaking”.

Regarding `N[C@@H](CCC(=O)O)C(=O)O` [L-Glu], on human GFAT-1 [4] (50 mM L-Glu, glutaminase site of monomer A only), the “X-ray crystal structure (co-crystallization)” value is “The product L-Glu is bound to the glutaminase active site in one monomer (monomer A)”.

Take `N[C@H]1C(O)O[C@H](COP(=O)(O)O)[C@@H](O)[C@@H]1O` (stereo partly drawn) [D-GlcN6P]: at human GFAT-1 [4] (1 mM GlcN6P, with L-Glu, linear sugar in isomerase site), the “X-ray crystal structure (co-crystallization)” value is “The GlcN6P-bound structure formed the same asymmetric dimer as the Glc6P-bound structure”.
